For data set [1], the target named is T1, cCaSR (Felis catus, UniProt C7FF08).
T1 sequence (C7FF08 1-1081): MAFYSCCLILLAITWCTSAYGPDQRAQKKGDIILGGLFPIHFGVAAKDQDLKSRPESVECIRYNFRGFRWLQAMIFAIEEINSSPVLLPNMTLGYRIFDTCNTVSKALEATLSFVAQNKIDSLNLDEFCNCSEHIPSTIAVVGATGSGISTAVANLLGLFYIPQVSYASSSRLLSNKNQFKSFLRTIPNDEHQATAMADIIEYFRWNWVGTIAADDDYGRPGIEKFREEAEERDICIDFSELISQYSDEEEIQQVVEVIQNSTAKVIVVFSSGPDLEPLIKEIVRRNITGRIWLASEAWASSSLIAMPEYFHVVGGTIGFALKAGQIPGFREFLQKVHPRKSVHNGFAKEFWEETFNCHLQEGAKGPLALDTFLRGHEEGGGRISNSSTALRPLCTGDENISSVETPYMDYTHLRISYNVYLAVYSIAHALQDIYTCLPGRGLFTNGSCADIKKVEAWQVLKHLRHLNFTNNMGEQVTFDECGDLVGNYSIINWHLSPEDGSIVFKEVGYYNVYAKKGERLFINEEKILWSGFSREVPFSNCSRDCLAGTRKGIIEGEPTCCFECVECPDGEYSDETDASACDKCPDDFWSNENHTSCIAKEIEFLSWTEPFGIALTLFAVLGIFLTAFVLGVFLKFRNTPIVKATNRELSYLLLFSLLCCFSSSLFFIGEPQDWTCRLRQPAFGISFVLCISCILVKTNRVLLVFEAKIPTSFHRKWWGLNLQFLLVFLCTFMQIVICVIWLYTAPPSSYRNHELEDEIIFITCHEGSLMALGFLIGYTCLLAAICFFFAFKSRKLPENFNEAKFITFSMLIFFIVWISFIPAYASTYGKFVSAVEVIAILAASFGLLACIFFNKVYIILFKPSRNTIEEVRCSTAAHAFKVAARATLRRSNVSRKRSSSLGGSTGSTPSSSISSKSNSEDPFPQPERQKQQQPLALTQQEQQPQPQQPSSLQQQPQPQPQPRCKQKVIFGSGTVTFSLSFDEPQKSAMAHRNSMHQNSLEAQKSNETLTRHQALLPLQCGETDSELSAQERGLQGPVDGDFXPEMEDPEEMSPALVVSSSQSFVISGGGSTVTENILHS
Procedure: (§1) The cCaSR expression constructs were stably-transfected in the mammalian cell line, HEK293/ T-REx/ natClytin. Transfections were performed by electroporation, following standard methodologies. Stably-transfected target and mock pools were obtained after 2–3 weeks of antibiotic selection, and clones were selected for testing. In order to evaluate the activity of each clone, 10 mM Calcium was injected onto the cells and the resulting luminescence was measured.
(§2) All compounds screened on the receptor were analysed in parallel with Calcium, on the HEK293/ T-REx/ natClytin-cCaSR or hCaSR stable or transient cell lines. Prior to the measurements, the cells were incubated with 10 µM of photoprotein substrate, Coelenterazine, prepared in Calcium-free Tyrode’s buffer at 37 °C for 3–4 h. All the data was captured using a FLIPR Tetra (Molecular Devices). A single or double injection protocol was used to capture the data for potential agonists and PAMs, respectively. The compounds tested were all prepared at desired concentration in Calcium-Free Tyrode’s buffer supplemented with 0.5% DMSO. For the activity determination of potential agonists, the single injection protocol was used, with CaCl2 as the positive control for each run. Each compound was injected into specific wells and the luminescence signal was measured for 1 min. for each compound. For potential PAMs, the double injection protocol was used. The first injection was identical to the one described above for potential agonists. A 20 min. resting period followed the first injection and a second injection of 0.5 mM CaCl2 in Calcium-free Tyrode’s buffer was injected to all wells, and the resulting luminescence signal was again measured for 1 min for each compound.
(§3) Dose–response curves were established by plotting signal amplitudes versus agonist concentration. For each compound, the % of maximum response was determined using a standard formula as follows:
(§4) The half maximal effective concentrations (EC50) were identified by nonlinear regression using a variable slope model with the equation Y = Bottom + (X^Hillslope)*(Top–Bottom)/ (X^HillSlope + EC50^HillSlope), where Y is the agonist concentration, Top and Bottom are the plateaus in the same units as Y and HillSlope is the Slope factor or Hill slope. […] In these cases the EC50 was noted as being higher than the maximum concentration used in the assay.

The conditions of data set [2]: GSH at 2.5 mM.
Data set [3] has as its target T1, cCaSR. Nature of the data set: cell-based.
Procedure: as §1, §2, §3, §4
[4] abbreviates: read-out: cCaSR activity, agonist assay, stable inducible cCaSR line, at least three wells.
[5] abbreviates: read-out: cCaSR stable EC50, stably expressed cCaSR, Fig. 6b, > 3 mM = maximal response not reached.

These results are taken from publication PMC8131363 (Scientific Reports, 2021).

Where two headings read alike, the source gives them in different places. Bounds are passed on as bounds.

Take `[Ca+2].[Cl-].[Cl-]` [Ca^2+, CaCl2]: the EC50 in data set [1] (agonist assay, stable inducible cCaSR line, > 0.01 M = maximal response not reached) was 1620 µM; in data set [1] (read-out: EC50 Ago, Supplementary Table I, agonist assay, > 0.01 M = maximal response not reached), 1620 µM; in data set [1] (setting [4]) it was 1000 to 10000 µM; in data set [1] (setting [5]) it was 1470 µM.

As to `N[C@@H](CCC(=O)N[C@@H](CS)C(=O)NCC(=O)O)C(=O)O` [Glutathione], in data set [2], the pH of solution is listed as 3.48. In addition, the EC50 was 0.00639 M in data set [3] (EC50 (M), agonist assay, stable inducible cCaSR line, > 0.01 M = maximal response not reached); 0.0064 M in data set [3] (EC50 Ago (M), Supplementary Table I, agonist assay, > 0.01 M = maximal response not reached); 0.001 to 0.01 M in data set [3] (cCaSR activity, agonist assay, stable inducible cCaSR line, at least three wells); more than 0.003 M in data set [3] (cCaSR stable EC50(mM), stably expressed cCaSR, Fig. 6b, > 3 mM = maximal response not reached).

Turning to `[Cl-].[Cl-].[Mg+2]` [Mg^2+, MgCl2], the figures for the EC50 in data set [1] (setting [4]) and in data set [1] (setting [5]) were more than 10000 µM and more than 3000 µM, respectively.
